A short description of data set [1]: in vitro. To be noted: human.
The nature of data set [2]: in vitro. To be noted: mouse, microsomes, pH 7.4, MLM CLint (uL/min/mg), mouse liver microsomes. A general note: Liver microsomes are a subcellular fraction often used to study metabolism.
In data set [3] the test system is Trypanosoma cruzi, Tulahuen CL2, beta-galactosidase strain. Put plainly: microbe, parasite or virus in culture. As to conditions: MRC5, read-out: T. cruzi Tulahuen C4 (LacZ) IC50 (uM).
A short description of data set [4]: in vitro. To be noted: human, HepG2 cells.
Data set [5] deals with Leishmania infantum MHOM/MA(BE)/67/ITMAP263 intracellular amastigotes. Put plainly: microbe, parasite or virus in culture. To be noted: Macrophage, in Mus musculus.
Data set [6] in a line: in vitro. As to conditions: human, microsomes, pH 7.4, HLM CLint (uL/min/mg), human liver microsomes.
In data set [7] the test system is primary peritoneal mouse macrophages (PMM). As to the kind of experiment: cells. To be noted: Macrophage, read-out: PMM IC50 (uM).
A further data set is described as follows: physchem. As to conditions: HPLC, Ascentis Express RP Amide column, pH 7.4, eLogD, experimental.
Data set [8] in a line: in vitro. As to conditions: PAMPA. (The PAMPA barrier holds no transporters, so it reflects passive diffusion.)
A short description of data set [9]: in vitro. To be noted: human, HFF-1 cells.
[10] abbreviates: read-out: L. Inf. pIC50, from L. infantum intracellular amastigote IC50 (converted).
Setting [11] is: read-out: L. infantum MHOM/MA(BE)/67/ITMAP263 intracellular amastigotes IC50 (uM), intracellular amastigotes.

What is called microsomal CLint is the rate of metabolic loss divided by the concentration. As usually defined, the chromatographic logD is lipophilicity estimated from chromatographic retention. The low end stands for lower lipophilicity, the high end for higher lipophilicity. The Papp is a coefficient for how fast a substance crosses the barrier. High values mean ready permeation, low ones poor permeation.

Where two headings read alike, the source gives them in different places.

With `N#Cc1ccc(O)c(S(=O)(=O)N(Cc2ccc(F)cc2)Cc2ccc(F)cc2)c1` [DNDI0003389125], the CC50 at 3 days in “in vitro [1]” amounted to 4 µM. Further, the intrinsic clearance (microsomal CLint) at 0.5 μM in the data set “in vitro [2]” turned out to be 366 µL/min/mg; in the data set “in vitro [6]”, 33 µL/min/mg. Also, the IC50 in data set [3] is 16.8 µM; in data set [5] (setting [10]) it was 30.9 µM; in data set [5] (setting [11]), 30.7 µM; in data set [7] it was 45.2 µM. Also, the CC50 is > 64 µM in the data set “in vitro [4]” and 7.8 µM in “in vitro [9]”. In the data set “physchem”, this compound returned a chromatographic logD of 3.5. For the same compound, the Papp in “in vitro [8]” was 13.2 ×10⁻⁶ cm/s.
Turning to `COc1ccc(C(=O)N2CCOCC2)cc1S(=O)(=O)N(C)Cc1ccc(F)cc1` [DNDI0003389126], the CC50 at 3 days in “in vitro [1]” is > 64 µM. In addition, the microsomal CLint at 0.5 μM was 94 µL/min/mg in the data set “in vitro [2]” and 70 µL/min/mg in the data set “in vitro [6]”. Besides, the IC50 in [3] is 41.4 µM; in data set [5] (setting [10]), 57.5 µM; in data set [5] (setting [11]) it was 57 µM; in [7] it was > 64 µM. In addition, the CC50 in the data set “in vitro [4]” and in the data set “in vitro [9]” was > 64 µM throughout. In the data set “physchem”, this compound returned a chromatographic logD of 2.7. The compound further returned a Papp in the data set “in vitro [8]” of 16.6 ×10⁻⁶ cm/s.
Turning to `COc1ccc(C(=O)N2CCOCC2)cc1S(=O)(=O)N(Cc1ccc(F)cc1)Cc1ccccc1Cl` [DNDI0003389128], the CC50 at 3 days in “in vitro [1]” was 36.8 µM. In addition, the intrinsic clearance (microsomal CLint) at 0.5 μM turned out to be 1660 µL/min/mg in “in vitro [2]” and 351 µL/min/mg in the data set “in vitro [6]”. The IC50 in [3] was 9.66 µM; in data set [5] (setting [10]), 1.41 µM; in data set [5] (setting [11]), 1.4 µM; in data set [7], > 64 µM. Also, the CC50 in the data set “in vitro [4]” is > 64 µM; in “in vitro [9]” it was 10.5 µM. For the same compound, the chromatographic logD in “physchem” came to 4.1. The compound also returned a Papp in the data set “in vitro [8]” of 9 ×10⁻⁶ cm/s.
As for `COc1ccc(Cl)cc1S(=O)(=O)N(Cc1ccccc1)CC(O)c1ccc(F)cc1` (centres unmarked) [DNDI0003389316], the CC50 at 3 days in “in vitro [1]” was 23.5 µM. Moreover, the microsomal CLint at 0.5 μM in “in vitro [2]” was found to be 147 µL/min/mg; in “in vitro [6]”, 298 µL/min/mg. Further, the IC50 in data set [3] is 17.8 µM; in data set [5] (setting [10]), 12 µM; in data set [5] (setting [11]) it was 12 µM; in [7], > 64 µM. In addition, the CC50 stood at 51.5 µM in the data set “in vitro [4]” and 4.75 µM in “in vitro [9]”. The compound also gave a chromatographic logD in “physchem” of 3.1. Besides, the Papp in “in vitro [8]” came out at 4 ×10⁻⁶ cm/s.
In turn, `COc1ccccc1S(=O)(=O)N(Cc1ccccc1)CC(O)c1ccc(F)cc1` (centres unmarked) [DNDI0003389317] registered a CC50 at 3 days in the data set “in vitro [1]” of 40.7 µM. The intrinsic clearance (microsomal CLint) at 0.5 μM in the data set “in vitro [2]” worked out at 1240 µL/min/mg; in “in vitro [6]”, 610 µL/min/mg. Further, the IC50 in data set [3] was 26.6 µM; in data set [5] (setting [10]), 11.5 µM; in data set [5] (setting [11]), 11.6 µM; in data set [7] it was > 64 µM. Also, the CC50 in the data set “in vitro [4]” was > 64 µM; in the data set “in vitro [9]”, 10.5 µM. In “physchem”, this compound gave a chromatographic logD of 4.1. This compound yielded a Papp in “in vitro [8]” of 11.8 ×10⁻⁶ cm/s.
In turn, `CNCCOc1ccc(F)cc1S(=O)(=O)N(Cc1ccc(F)cc1)Cc1ccc(F)cc1` [DNDI0003389318] showed a CC50 at 3 days in “in vitro [1]” of 4.22 µM. Also, the results for the intrinsic metabolic clearance (microsomal CLint) at 0.5 μM in “in vitro [2]” and in “in vitro [6]” were 84 µL/min/mg and 46 µL/min/mg, respectively. Moreover, the IC50 in data set [3] is 5.11 µM; in data set [5] (setting [10]) it was 2.4 µM; in [5] (setting [11]) it was 2.38 µM; in data set [7], 8 µM. The CC50 in the data set “in vitro [4]” was 6.84 µM; in “in vitro [9]” it was 7.25 µM. Further, in the data set “physchem”, the chromatographic logD was 5.3. Besides, the Papp in the data set “in vitro [8]” turned out to be 0.43 ×10⁻⁶ cm/s.
For the compound `CS(=O)(=O)c1ccccc1S(=O)(=O)N(Cc1ccccc1)Cc1ccccc1` [DNDI0003389642], in “in vitro [1]”, the CC50 at 3 days is > 64 µM. Moreover, the microsomal CLint at 0.5 μM turned out to be 502 µL/min/mg in “in vitro [2]” and 248 µL/min/mg in the data set “in vitro [6]”. Also, the IC50 was 24.3 µM in data set [3], 32.4 µM in data set [5] (setting [10]), 32 µM in data set [5] (setting [11]) and > 64 µM in data set [7]. The values for the CC50 in the data set “in vitro [4]” and in “in vitro [9]” were > 64 µM and 38.1 µM, respectively. The chromatographic logD in the data set “physchem” was determined as 4.1. Further, the Papp in the data set “in vitro [8]” is 6.25 ×10⁻⁶ cm/s.
As for `COc1ccc(S(=O)(=O)N2CCOCC2)cc1C(=O)N(Cc1ccc(F)cc1)Cc1ccc(F)cc1` [DNDI0003389643], the CC50 at 3 days in the data set “in vitro [1]” was > 64 µM. Moreover, the microsomal CLint at 0.5 μM in the data set “in vitro [2]” was 610 µL/min/mg; in the data set “in vitro [6]”, 717 µL/min/mg. The IC50 in data set [3] is 16.6 µM; in [5] (setting [10]), 17 µM; in data set [5] (setting [11]), 16.9 µM; in data set [7] it was > 64 µM. In addition, the CC50 in the data set “in vitro [4]” and in “in vitro [9]” was > 64 µM each time. The compound also gave a chromatographic logD in the data set “physchem” of 3.9. In the data set “in vitro [8]”, the Papp came to 4.14 ×10⁻⁶ cm/s.
Turning to `COc1ccc(N2CCN(C)CC2)cc1S(=O)(=O)N(Cc1ccc(F)cc1)Cc1ccc(F)cc1` [DNDI0003389645], the CC50 at 3 days in “in vitro [1]” worked out at 28.7 µM. Also, the results for the microsomal CLint at 0.5 μM in the data set “in vitro [2]” and in “in vitro [6]” were 212 µL/min/mg and 152 µL/min/mg, respectively. Further, the IC50 is 2.8 µM in data set [3], 0.398 µM in data set [5] (setting [10]), 0.4 µM in data set [5] (setting [11]) and 8 µM in data set [7]. Further, the CC50 in “in vitro [4]” amounted to 26.8 µM; in the data set “in vitro [9]”, 8.45 µM. In “physchem”, this compound had a chromatographic logD of 4.4. This compound gave an apparent permeability (Papp) in the data set “in vitro [8]” of 0.71 ×10⁻⁶ cm/s.
Take `O=S(=O)(c1ccccn1)N(Cc1ccccc1)Cc1ccccc1` [DNDI0003389646]: the CC50 at 3 days in the data set “in vitro [1]” was > 64 µM. For the same compound, the microsomal CLint at 0.5 μM in the data set “in vitro [2]” turned out to be 449 µL/min/mg; in the data set “in vitro [6]”, 218 µL/min/mg. Further, the IC50 in data set [3] is 27.7 µM; in [5] (setting [10]), 16.2 µM; in data set [5] (setting [11]), 16.1 µM; in data set [7], > 64 µM. For the same compound, the CC50 in the data set “in vitro [4]” is > 64 µM; in “in vitro [9]”, 33.8 µM. The same compound had a chromatographic logD in the data set “physchem” of 4. In “in vitro [8]”, the apparent permeability coefficient (Papp) amounted to 9.55 ×10⁻⁶ cm/s.
`O=S(=O)(c1cc(N2CCOCC2)ccc1OC(F)F)N(Cc1ccc(F)cc1)Cc1ccc(F)cc1` [DNDI0003389647]: the CC50 at 3 days in “in vitro [1]” was > 64 µM. In addition, the microsomal CLint at 0.5 μM in “in vitro [2]” is 462 µL/min/mg; in the data set “in vitro [6]”, 153 µL/min/mg. In addition, the IC50 in [3] was 5.62 µM; in data set [5] (setting [10]), 0.501 µM; in data set [5] (setting [11]), 0.5 µM; in data set [7] it was 45.2 µM. For the same compound, the CC50 is > 64 µM in “in vitro [4]” and 37.6 µM in “in vitro [9]”. The compound also showed a chromatographic logD in “physchem” of 4.8. For the same compound, the Papp in “in vitro [8]” came out at 0.12 ×10⁻⁶ cm/s.
As for `COc1ccc(CN(Cc2ccc(F)cc2)S(=O)(=O)c2cc(F)ccc2OCC[N+](C)(C)CC(=O)O)cc1` [DNDI0003389931], the CC50 at 3 days in the data set “in vitro [1]” is > 64 µM. In addition, the microsomal CLint at 0.5 μM was found to be 17 µL/min/mg in the data set “in vitro [2]” and 14 µL/min/mg in “in vitro [6]”. Further, the IC50 in data set [3] was 13.1 µM; in data set [5] (setting [10]) it was > 64 µM; in [5] (setting [11]), > 64 µM; in data set [7], > 64 µM. Further, the CC50 is > 64 µM in the data set “in vitro [4]” and 61.1 µM in “in vitro [9]”. In “physchem”, this compound showed a chromatographic logD of 3.8. In “in vitro [8]”, this compound yielded a Papp of 0.36 ×10⁻⁶ cm/s.
In the data set “in vitro [1]”, `COc1ccc(Cl)cc1S(=O)(=O)N(Cc1ccccc1)CC(N)c1ccc(F)cc1` (centres unmarked) [DNDI0003389932] yielded a CC50 at 3 days of 14 µM. The microsomal CLint at 0.5 μM was 239 µL/min/mg in “in vitro [2]” and 34 µL/min/mg in the data set “in vitro [6]”. The IC50 in data set [3] is 4.64 µM; in data set [5] (setting [10]) it was 6.46 µM; in data set [5] (setting [11]), 6.39 µM; in [7], 32 µM. Also, the CC50 in “in vitro [4]” was 19.5 µM; in “in vitro [9]”, > 64 µM. The compound also came in with a chromatographic logD in “physchem” of 4.3. For the same compound, the Papp in “in vitro [8]” is 0.59 ×10⁻⁶ cm/s.

The values above are taken from publication PMC8126888 (RSC Medicinal Chemistry, 2020).
